From paper PMC8741576 (Molecular Diversity, 2022)
Like-named read-outs stand apart in the source and are kept apart here.

What was measured:
[1] = system: K-562 chronic myeloid leukemia cells; test: Antiproliferative screening, IncuCyte cell growth; assay type: cell-based; conditions: Homo sapiens
[2] = system: HCT-116 colorectal carcinoma cells; test: Antiproliferative screening, MTS cell viability assay; assay type: cell-based; conditions: Homo sapiens
[3] = system: DND-41 acute lymphoblastic leukemia cells; test: Antiproliferative screening, IncuCyte cell growth; assay type: cell-based; conditions: Homo sapiens
[4] = system: Capan-1 pancreatic adenocarcinoma cells; test: Antiproliferative screening, MTS cell viability assay; assay type: cell-based; conditions: Homo sapiens
[5] = system: Z-138 non-Hodgkin lymphoma cells; test: Antiproliferative screening, IncuCyte cell growth; assay type: cell-based; conditions: Homo sapiens
[6] = system: NCI-H460 lung carcinoma cells; test: Antiproliferative screening, MTS cell viability assay; assay type: cell-based; conditions: Homo sapiens
[7] = system: HL-60 acute myeloid leukemia cells; test: Antiproliferative screening, IncuCyte cell growth; assay type: cell-based; conditions: Homo sapiens
[8] = system: LN-229 glioblastoma cells; test: Antiproliferative screening, MTS cell viability assay; assay type: cell-based; conditions: Homo sapiens
[9] = system: HEL 299 normal human lung fibroblasts; test: Antiproliferative screening on noncancerous cells; conditions: for IC50: Homo sapiens, HEL 299, read-out: IC50 HEL 299
[10] = K562, 72 h, read-out: IC50 K-562
[11] = HCT-116, 72 h, read-out: IC50 HCT-116
[12] = DND41, 72 h, read-out: IC50 DND-41
[13] = CAPAN-1, 72 h, read-out: IC50 Capan-1
[14] = Z-138, 72 h, read-out: IC50 Z-138
[15] = NCI-H460, 72 h, read-out: IC50 NCI-H460
[16] = HL-60, 72 h, read-out: IC50 HL-60
[17] = LN-229, 72 h, read-out: IC50 LN-229
[18] = HCT-116, read-out: IC50 HCT-116
[19] = CAPAN-1, read-out: IC50 Capan-1
[20] = NCI-H460, read-out: IC50 NCI-H460

| Compound | IC50 [1, 10] [µM] | IC50 [2, 11] [µM] | IC50 [3, 12] [µM] | IC50 [4, 13] [µM] | IC50 [5, 14] [µM] | IC50 [6, 15] [µM] | IC50 [7, 16] [µM] | IC50 [8, 17] [µM] | IC50 [9] [µM] | Cytotoxicity against noncancerous cells in words ([9]; HEL 299) | IC50 ([1]; K562, read-out: IC50 K-562) [µM] | IC50 [2, 18] [µM] | IC50 ([3]; DND41, read-out: IC50 DND-41) [µM] | IC50 [4, 19] [µM] | IC50 ([5]; Z-138, read-out: IC50 Z-138) [µM] | IC50 [6, 20] [µM] | IC50 ([7]; HL-60, read-out: IC50 HL-60) [µM] | IC50 ([8]; LN-229, read-out: IC50 LN-229) [µM] |
| --- | --- | --- | --- | --- | --- | --- | --- | --- | --- | --- | --- | --- | --- | --- | --- | --- | --- | --- |
| Cc1nc(CNC(=O)c2ccc(Cl)cc2NC(=O)OC(C)(C)C)cc2c1[nH]c1ccccc12 [Compound 8, tert-Butyl {5-chloro-2-[[(1-methyl-9H-pyrido[3,4-b]indol-3-yl)methyl]carbamoyl]phenyl}carbamate] | 29.1 ± 21.3 | 28.9 ± 24.1 | 32.1 ± 20.8 | 6.5 ± 2.9 | 8.2 ± 1.9 | 8.3 ± 4.3 | 6.7 ± 0.2 | 20.8 ± 13.8 | 7.1 ± 1.8 |  |  |  |  |  |  |  |  |  |
| Cc1nc(CNC(=O)c2cc(Br)ccc2N)cc2c1[nH]c1ccccc12 [Compound 19, 2-Amino-5-bromo-N-[(1-methyl-9H-pyrido[3,4-b]indol-3-yl)methyl]benzamide] | 64.9 ± 4.9 | 60.8 ± 31 | 68.3 ± 12.2 | 38.9 ± 5.8 | 55.5 ± 12.1 | 55 ± 5 | 66.3 ± 34 | 46.2 ± 7.5 | 82.6 ± 17.4 |  |  |  |  |  |  |  |  |  |
| O=C(NCCCCNc1ccnc2cc(Cl)ccc12)c1ccccc1NCc1ccccc1 [Compound 1, 2-(Benzylamino)-N-{4-[(7-chloroquinolin-4-yl)amino]butyl}benzamide] | 55.7 ± 10 | > 100 | > 100 | 57.6 ± 14.6 | > 100 | > 100 | > 100 | 53.5 ± 12.2 | 8 ± 4.4 |  |  |  |  |  |  |  |  |  |
| Cc1nc(CNC(=O)c2ccccc2N)cc2c1[nH]c1ccccc12 [Compound 17, 2-Amino-N-[(1-methyl-9H-pyrido[3,4-b]indol-3-yl)methyl]benzamide] | 52 ± 5.3 | 48.4 ± 3.8 | 61.5 ± 2.1 | 31.4 ± 1.9 | 35.1 ± 4.5 | 54.8 ± 5.9 | 44 ± 8.4 | 41 ± 0.3 | 32.8 ± 3.3 |  |  |  |  |  |  |  |  |  |
| CC(C)(C)OC(=O)Nc1cc(Cl)ccc1C(=O)NCCCCNc1ccnc2cc(Cl)ccc12 [Compound 2, tert-Butyl {5-chloro-2-[[4-[(7-chloroquinolin-4-yl)amino]butyl]carbamoyl]phenyl}carbamate] | 54.5 ± 18.5 | 32.4 ± 20 | 46.2 ± 1.9 | 20.4 ± 9 | 28.6 ± 14.6 | 21.2 ± 10 | 41.5 ± 17 | 30.1 ± 2.1 | > 100 | no cytotoxicity against noncancerous cells |  |  |  |  |  |  |  |  |
| Cc1nc(CNC(=O)c2ccc(Cl)cc2N)cc2c1[nH]c1ccccc12 [Compound 18, 2-Amino-4-chloro-N-[(1-methyl-9H-pyrido[3,4-b]indol-3-yl)methyl]benzamide] | > 100 | 55 ± 17.7 | > 100 | 56.3 ± 24.1 | > 100 | 43.8 ± 8.4 | > 100 | 44 ± 7.6 | > 100 |  |  |  |  |  |  |  |  |  |
| Cc1nc(CNC(=O)c2ccccc2NCc2ccccc2)cc2c1[nH]c1ccccc12 [Compound 7, 2-(Benzylamino)-N-[(1-methyl-9H-pyrido[3,4-b]indol-3-yl)methyl]benzamide] | 90.7 ± 18.5 | 34.6 ± 6 | 53.5 ± 6.7 | 27.5 ± 8.1 | 21 ± 10.1 | 28.4 ± 4 | 66.2 ± 18.3 | 35.8 ± 9.3 | 50.9 ± 2.7 |  |  |  |  |  |  |  |  |  |
| CC(=O)O[C@@]12CO[C@@H]1C[C@H](O)[C@@]1(C)C(=O)[C@H](O)C3=C(C)[C@@H](OC(=O)[C@H](O)[C@@H](NC(=O)OC(C)(C)C)c4ccccc4)C[C@@](O)([C@@H](OC(=O)c4ccccc4)[C@H]21)C3(C)C [DTX, docetaxel, reference compound] |  |  |  |  |  |  |  |  |  |  | 0.0089 ± 0.003 | 0.0025 ± 0.003 | 0.0055 ± 0.003 | 0.01 ± 0.003 | 0.0025 ± 0.003 | 0.0271 ± 0.003 | 0.0137 ± 0.003 | 0.0018 ± 0.003 |
| CN[C@@H]1C[C@H]2O[C@@](C)([C@@H]1OC)n1c3ccccc3c3c4c(c5c6ccccc6n2c5c31)C(=O)NC4 [STS, staurosporine, reference compound] |  |  |  |  |  |  |  |  |  |  |  | 0.0687 ± 0.003 |  | 0.0382 ± 0.003 |  | 0.0384 ± 0.003 | 0.0598 ± 0.003 |  |
